Data from US20240228555A9, “ANTIMICROBIAL PEPTIDOMIMETICS” (Basilea Pharmaceutica International AG, Allschwil, priority 2020, published 2024).
Where a SMILES comes first, the peptide text is derived from it. Bridges are numbered along the chain shown (N, C = ends). [ ]: non-standard residue; d: D form. Hyp = O=C(O)[C@@H]1C[C@@H](O)CN1; Pen = CC(C)(S)[C@H](N)C(=O)O; dDab = NCC[C@@H](N)C(=O)O; Dab = NCC[C@H](N)C(=O)O

Experiments:
[1] = system: human red blood cells (hRBC); type: cell-based; conditions: red cells of human, 1 h, 0.2 g/L
Procedure, shortened: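 Percent lysis was derived from supernatant absorbance at 540 nm relative to full lysis by 2.5% Triton X-100 (PBS defines 0%). Compounds, 200 μg/mL, were exposed for 1 h at 37° C to a 20% (v/v) suspension of washed human red cells.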

[2] = system: Escherichia coli ATCC 25922; conditions: ATCC 25922
Procedure, shortened: (§1)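 Standardized inocula (0.5 McFarland in saline, then diluted in MHII broth to approximately 5×10^5 CFU/mL) were exposed to two-fold dilution series of each peptide in the presence of polysorbate 80 (0.002% final).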

[3] = system: Klebsiella pneumoniae SSI3010; conditions: SSI3010
Procedure, shortened: as §1

[4] = system: Escherichia coli MCR-1 Af 45; conditions: Mueller-Hinton broth II, no visible growth after 18-20 hours at 35° C.
Procedure, shortened: as §1

Compound | Hemolysis at 0.2 g/L [1] [%] | Escherichia coli ATCC 25922 MIC [2] [µg/mL] | Klebsiella pneumoniae SSI3010 MIC [3] [µg/mL] | Escherichia coli MCR-1 Af 45 MIC [4] [µg/mL]
CC[C@H](C)[C@H](NC(=O)[C@@H]1C[C@@H](OC)CN1C(=O)[C@@H](N)C(C)C)C(=O)N[C@H](C(=O)N[C@@H](Cc1ccc(O)cc1)C(=O)N[C@@H]1C(=O)N[C@@H](CC(N)=O)C(=O)N[C@@H](CCCNC(=N)N)C(=O)N[C@@H](CCN)C(=O)N[C@@H]([C@@H](C)O)C(=O)N[C@H](CCN)C(=O)N[C@@H](CCCCN)C(=O)N[C@H](C(=O)N[C@@H](CCN)C(=O)N[C@@H](CCCNC(=N)N)C(=O)N[C@@H](Cc2ccc(O)cc2)C(=O)O)CSSC1(C)C)[C@@H](C)O [Example 130, Val-Pro((4R)OPh)-Ile-Thr-Tyr-Pen-Asn-Arg-Dab-Thr-^DDab-Lys-Cys-Dab-Arg-Tyr] (H-V[Hyp](Me)ITY[Pen]NR[Dab]T[dDab]KC[Dab]RY-OH; disulfide 6-13) | <1 | 0.125 | 0.25 | 0.125
CC[C@H](N)C(=O)N1C[C@H](O)C[C@H]1C(=O)N[C@H](C(=O)N[C@H](C(=O)N[C@@H](Cc1ccc(O)cc1)C(=O)N[C@@H]1C(=O)N[C@@H](CC(N)=O)C(=O)N[C@@H](CCCNC(=N)N)C(=O)N[C@@H](CCN)C(=O)N[C@@H]([C@@H](C)O)C(=O)N[C@H](CCN)C(=O)N[C@@H](CCCCN)C(=O)N[C@H](C(=O)N[C@@H](CCN)C(=O)N[C@@H](CCCNC(=N)N)C(=O)N[C@@H](Cc2ccc(O)cc2)C(=O)O)CSSC1(C)C)[C@@H](C)CC)[C@@H](C)CC [Example 79, Abu-Hyp-Ile-Ile-Tyr-Pen-Asn-Arg-Dab-Thr-^DDab-Lys-Cys-Dab-Arg-Tyr] (HELM PEPTIDE1{[Abu].[Hyp].I.I.Y.[Pen].N.R.[Dab].T.[NCC[C@@H](N[*:1])C(=O)[*:2]].K.C.[Dab].R.Y}$PEPTIDE1,PEPTIDE1,6:R3-13:R3$$$V2.0) | <1 | 0.125 | 0.5 | 0.125
CC[C@H](C)[C@H](NC(=O)[C@@H]1C[C@@H](N)CN1C(=O)[C@@H](N)C(C)C)C(=O)N[C@H](C(=O)N[C@@H](Cc1ccc(O)cc1)C(=O)N[C@@H]1C(=O)N[C@@H](CC(N)=O)C(=O)N[C@@H](CCCNC(=N)N)C(=O)N[C@@H](CCN)C(=O)N[C@@H]([C@@H](C)O)C(=O)N[C@H](CCN)C(=O)N[C@@H](CCCNC(N)=O)C(=O)N[C@H](C(=O)N[C@@H](CCN)C(=O)N[C@@H](CO)C(=O)N[C@@H](Cc2ccc(O)cc2)C(=O)O)CSSC1(C)C)[C@@H](C)O [Example 102, Val-Pro((4R)NH2)-Ile-Thr-Tyr-Pen-Asn-Arg-Dab-Thr-^DDab-Cit-Cys-Dab-Ser-Tyr] (HELM PEPTIDE1{V.[N[C@@H]1C[C@@H](C(=O)[*:2])N([*:1])C1].I.T.Y.[Pen].N.R.[Dab].T.[NCC[C@@H](N[*:1])C(=O)[*:2]].[Cit].C.[Dab].S.Y}$PEPTIDE1,PEPTIDE1,6:R3-13:R3$$$V2.0) | <1 | 0.25 | 0.25 | 0.125
CC[C@H](C)[C@H](NC(=O)[C@@H]1C[C@@H](O)CN1C(=O)[C@@H](N)C(C)C)C(=O)N[C@@H](CCN)C(=O)N[C@@H](Cc1ccc(O)cc1)C(=O)N[C@@H]1C(=O)N[C@@H](CC(N)=O)C(=O)N[C@@H](CCCNC(=N)N)C(=O)N[C@@H](CCN)C(=O)N[C@@H]([C@@H](C)O)C(=O)N[C@H](CCN)C(=O)N[C@@H](CCCNC(N)=O)C(=O)N[C@H](C(=O)N[C@@H](CCN)C(=O)N[C@H](C(=O)N[C@@H](Cc2ccc(O)cc2)C(=O)O)[C@@H](C)O)CSSC1(C)C [Example 113, Val-Hyp-Ile-Dab-Tyr-Pen-Asn-Arg-Dab-Thr-^DDab-Cit-Cys-Dab-Thr-Tyr] (HELM PEPTIDE1{V.[Hyp].I.[Dab].Y.[Pen].N.R.[Dab].T.[NCC[C@@H](N[*:1])C(=O)[*:2]].[Cit].C.[Dab].T.Y}$PEPTIDE1,PEPTIDE1,6:R3-13:R3$$$V2.0) | <1 | 0.125 | 0.25 | 0.125
CC[C@H](C)[C@H](NC(=O)[C@@H](NC(=O)[C@@H]1C[C@@H](N)CN1C(=O)[C@@H](N)C(C)C)[C@@H](C)CC)C(=O)N[C@@H](Cc1ccc(O)cc1)C(=O)N[C@@H]1C(=O)N[C@@H](CC(N)=O)C(=O)N[C@@H](CCCNC(=N)N)C(=O)N[C@@H](CCN)C(=O)N[C@@H]([C@@H](C)O)C(=O)N[C@H](CCN)C(=O)N[C@@H]([C@@H](C)CC)C(=O)N[C@H](C(=O)N[C@@H](CCN)C(=O)N[C@H](C(=O)N[C@@H](Cc2ccc(O)cc2)C(=O)O)[C@@H](C)O)CSSC1(C)C [Example 115, Val-Pro((4R)NH2)-Ile-Ile-Tyr-Pen-Asn-Arg-Dab-Thr-^DDab-Ile-Cys-Dab-Thr-Tyr] (HELM PEPTIDE1{V.[N[C@@H]1C[C@@H](C(=O)[*:2])N([*:1])C1].I.I.Y.[Pen].N.R.[Dab].T.[NCC[C@@H](N[*:1])C(=O)[*:2]].I.C.[Dab].T.Y}$PEPTIDE1,PEPTIDE1,6:R3-13:R3$$$V2.0) | <1 | 0.5 | 0.5 | 0.125
CC[C@H](C)[C@H](NC(=O)[C@@H]1CCCCN1C(=O)[C@@H](N)C(C)C)C(=O)N[C@H](C(=O)N[C@@H](Cc1ccc(O)cc1)C(=O)N[C@@H]1C(=O)N[C@@H](CC(N)=O)C(=O)N[C@@H](CCCNC(=N)N)C(=O)N[C@@H](CCN)C(=O)N[C@@H]([C@@H](C)O)C(=O)N[C@H](CCN)C(=O)N[C@@H](CCCCN)C(=O)N[C@H](C(=O)N[C@@H](CCN)C(=O)N[C@@H](CCCNC(=N)N)C(=O)N[C@@H](Cc2ccc(O)cc2)C(=O)O)CSSC1(C)C)[C@@H](C)O [Example 132, Val-Pic-Ile-Thr-Tyr-Pen-Asn-Arg-Dab-Thr-^DDab-Lys-Cys-Dab-Arg-Tyr] (HELM PEPTIDE1{V.[O=C([C@@H]1CCCCN1[*:1])[*:2]].I.T.Y.[Pen].N.R.[Dab].T.[NCC[C@@H](N[*:1])C(=O)[*:2]].K.C.[Dab].R.Y}$PEPTIDE1,PEPTIDE1,6:R3-13:R3$$$V2.0) | <1 | 0.125 | 0.25 | 0.125
CC[C@H](C)[C@H](NC(=O)[C@@H]1C[C@@H](O)CN1C(=O)[C@@H](N)C(C)C)C(=O)N[C@H](C(=O)N[C@@H](Cc1ccc(O)cc1)C(=O)N[C@@H]1C(=O)N[C@@H](CC(N)=O)C(=O)N[C@@H](CCCNC(=N)N)C(=O)N[C@@H](CCN)C(=O)N[C@@H]([C@@H](C)O)C(=O)N[C@H](CCN)C(=O)N[C@@H](CCCCN)C(=O)N[C@H](C(=O)N[C@@H](CCN)C(=O)N[C@@H](CCCNC(=N)N)C(=O)N[C@@H](Cc2ccc(O)cc2)C(=O)O)CSSC1(C)C)C(C)(C)O [Example 126, Val-Hyp-Ile-Val(3OH)-Tyr-Pen-Asn-Arg-Dab-Thr-^DDab-Lys-Cys-Dab-Arg-Tyr] (HELM PEPTIDE1{V.[Hyp].I.[CC(C)(O)[C@H](N[*:1])C(=O)[*:2]].Y.[Pen].N.R.[Dab].T.[NCC[C@@H](N[*:1])C(=O)[*:2]].K.C.[Dab].R.Y}$PEPTIDE1,PEPTIDE1,6:R3-13:R3$$$V2.0) | <1 | 0.0625 | 0.125 | 0.0625
CC[C@H](C)[C@@H]1NC(=O)[C@@H](NC(=O)[C@H](Cc2ccc(O)cc2)NC(=O)[C@@H](NC(=O)[C@@H](NC(=O)[C@@H]2C[C@@H](O)CN2C(=O)[C@@H](N)C(C)C)[C@@H](C)CC)[C@@H](C)O)C(C)(C)SSC[C@@H](C(=O)N[C@@H](CO)C(=O)N[C@@H](CCCN)C(=O)N[C@@H](Cc2ccc(O)cc2)C(=O)O)NC(=O)[C@H](CCCCN)NC(=O)[C@@H](CCN)NC(=O)[C@H]([C@@H](C)O)NC(=O)[C@H](CCN)NC(=O)[C@H](CCCNC(=N)N)NC1=O [Example 92, Val-Hyp-Ile-Thr-Tyr-Pen-Ile-Arg-Dab-Thr-^DDab-Lys-Cys-Ser-Orn-Tyr] (HELM PEPTIDE1{V.[Hyp].I.T.Y.[Pen].I.R.[Dab].T.[NCC[C@@H](N[*:1])C(=O)[*:2]].K.C.S.[Orn].Y}$PEPTIDE1,PEPTIDE1,6:R3-13:R3$$$V2.0) | <1 | 0.25 | 0.5 | 0.125
CC[C@H](C)[C@H](NC(=O)[C@@H]1C[C@@H](O)CN1C(=O)[C@@H](N)C(C)C)C(=O)N[C@H](C(=O)N[C@@H](Cc1ccc(O)cc1)C(=O)N[C@@H]1C(=O)N[C@@H](CC(N)=O)C(=O)N[C@@H](CCCNC(=N)N)C(=O)N[C@@H](CCN)C(=O)N[C@@H]([C@@H](C)O)C(=O)N[C@H](CCNC(C)C)C(=O)N[C@@H](CCCCN)C(=O)N[C@H](C(=O)N[C@@H](CCN)C(=O)N[C@@H](CCCNC(=N)N)C(=O)N[C@@H](Cc2ccc(O)cc2)C(=O)O)CSSC1(C)C)[C@@H](C)O [Example 138, Hyp-Ile-Thr-Tyr-Pen-Asn-Arg-Dab-Thr-^DDab(iPr)-Lys-Cys-Dab-Arg-Tyr] (HELM PEPTIDE1{V.[Hyp].I.T.Y.[Pen].N.R.[Dab].T.[CC(C)NCC[C@@H](N[*:1])C(=O)[*:2]].K.C.[Dab].R.Y}$PEPTIDE1,PEPTIDE1,6:R3-13:R3$$$V2.0) | <1 | 0.125 | 0.5 | 0.125
